In ChEMBL document CHEMBL4339204, “Synthesis of α-methylstilbenes using an aqueous Wittig methodology and application toward the development of potent human aromatase inhibitors” (Bioorg Med Chem Lett, 2019):

Biological target: T1, Aromatase (Homo sapiens, UniProt P11511)
T1 sequence (P11511 whole entry): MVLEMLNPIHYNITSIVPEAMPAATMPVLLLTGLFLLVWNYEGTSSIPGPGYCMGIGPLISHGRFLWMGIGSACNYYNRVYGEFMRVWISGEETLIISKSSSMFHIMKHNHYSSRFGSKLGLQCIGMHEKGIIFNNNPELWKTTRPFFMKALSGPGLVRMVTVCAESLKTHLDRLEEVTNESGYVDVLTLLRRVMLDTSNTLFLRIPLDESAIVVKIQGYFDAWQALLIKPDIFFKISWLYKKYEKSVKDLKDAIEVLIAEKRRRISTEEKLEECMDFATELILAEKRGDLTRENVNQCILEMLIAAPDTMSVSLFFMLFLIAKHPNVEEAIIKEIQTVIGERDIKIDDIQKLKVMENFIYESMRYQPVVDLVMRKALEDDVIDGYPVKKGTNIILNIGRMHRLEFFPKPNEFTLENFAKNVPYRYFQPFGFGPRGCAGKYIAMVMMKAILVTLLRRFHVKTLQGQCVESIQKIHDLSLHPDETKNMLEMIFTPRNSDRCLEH
Description: Inhibition of recombinant human CYP19A1 using DBF as substrate measured after 1 hr by fluorescence assay

Ki [nM]	SMILES
8	Clc1ccc(/C=C(\Cn2ccnn2)c2ccc(Cl)cc2)cc1
97	Clc1ccc(/C=C(/Cn2ccnn2)c2ccc(Cl)cc2)cc1
81	Clc1ccc(/C(=C\c2ccccc2)Cn2ccnn2)cc1
57	Clc1ccc(/C(=C/c2ccccc2)Cn2ccnn2)cc1

Continued, molecule first:

SMILES	Ki [nM]
Brc1ccc(/C=C(\Cn2ccnn2)c2ccc(Br)cc2)cc1	24
Brc1ccc(/C=C(/Cn2ccnn2)c2ccc(Br)cc2)cc1	450
Brc1ccc(/C(=C/c2ccccc2)Cn2ccnn2)cc1	74
C(=C(\Cn1cncn1)c1ccccc1)/c1ccccc1	79
C(=C(/Cn1cncn1)c1ccccc1)/c1ccccc1	32
Brc1ccc(/C(=C\c2ccccc2)Cn2ccnn2)cc1	125
c1ccc(CC(Cn2ccnn2)c2ccccc2)cc1 (stereo unspecified)	290
